Experimental data from patent publication US20250325531A1, “TREATMENT OF SYSTOLIC DYSFUNCTION” (MyoKardia, Inc., priority 2024, published 2025).

How the values were obtained:
Format in all cases: in vivo, human
healthy volunteers = test: Safety and tolerability in food effect study, healthy volunteers; settings: 200 mg
Description: ECG was performed as described in Example 1. The following intervals were measured: RR, PR, QRS, and QT. Heart rate (HR) was calculated as […] (with RR expressed in msec) and rounded to the nearest integer. Each individual ECG QT value was corrected for HR. The measured QT data was corrected for HR using the Fridericia method (QTcF) as per the following formulae/method (with QT, RR and QTc expressed in ms): […]
The Investigator or designee monitored the continuous ECG telemetry data and correlated the finding(s) with any other clinical findings, study participant's medical history, study participant's clinical status and laboratory data to determine the clinical importance of the finding.
Serum troponin-I concentrations were determined as described in Example 1. Abnormal and/or rising troponin values (as per Investigator's judgment and taking into account potential Baseline troponin elevation) led to the subject being clinically evaluated for possible myocardial ischemia. […] The entire clinical context would be evaluated (e.g., signs, symptoms, new ECG changes, new troponin, and CK-MB abnormalities) and correlated with any other relevant clinical findings, the subject's medical history, and laboratory data to determine the clinical significance of the findings.

[1] = test system: patients with stable HFrEF; test: TTE pharmacodynamics in SAD cohorts, patients with stable HFrEF; settings: Pooled SAD Cohorts 1 and 2
Description: PD assessment was done by transthoracic echocardiography as described in Example 1 above. TTE evaluations of LVSV (derived from LVOT-VTI), LVEF, LVFS, SET, and other parameters were PD assessments at predetermined time points. The patients were on bed rest for 10 minutes before the TTEs were obtained. In Part 2 (MAD), TTEs were usually obtained before the morning dose and/or at 7 hours postdose (i.e., close to the anticipated peak effect based on the PK profile from the healthy volunteer studies).
For both Cohorts 1 and 2, the pharmacodynamic effects of Compound I on echocardiographic markers of cardiac structure and function were analyzed by Compound I plasma concentration groups: <2000 ng/ml (low concentration group) and ≥2000 ng/ml (high concentration group) (Table 12).

[2] = test system: patients with stable HFrEF; test: TTE pharmacodynamics in MAD cohorts, patients with stable HFrEF; settings: plasma concentration group <2000 ng/mL (n = 30); LS mean difference vs placebo
Description: During the study, multiple evaluations were performed that included: serial TTE assessments (11-14 TTEs per patient on Days 1, 2, 3, 4, 7, 9, 10 and 11); PK sampling (PK sample collected concomitantly with every post-randomization echocardiogram); ECGs (on Days 2, 3, 4, 7, 9, 10, 11 and 16); troponin (collected concomitantly with every post-randomization ECG); and safety laboratory assessments. Confined patients underwent continuous telemetry. Holter monitoring was performed in all patients at baseline (Days 1-2) and at the end of double-blind treatment (Days 7-9). Vital signs were collected daily.
PD assessment was done by transthoracic echocardiography as described in Example 1 above. TTE evaluations of LVSV (derived from LVOT-VTI), LVEF, LVFS, SET, and other parameters were PD assessments at predetermined time points. The patients were on bed rest for 10 minutes before the TTEs were obtained. […]
The pharmacodynamic effects of Compound I on echocardiographic markers of cardiac structure and function were analyzed by Compound I plasma concentration groups: <2000 ng/mL (lower concentration group), 2000-3500 ng/ml (medium concentration group) and >3500 ng/ml (higher concentration group) (Table 16) and with PK-PD scatterplots (FIGS. 9A-9C). […]

[3] = plasma concentration group <2000 ng/mL (n = 7)
[4] = plasma concentration group ≥2000 ng/mL (n = 12)

With `Cn1cc(S(=O)(=O)[C@@](C)(F)C2CCN(C(=O)Nc3ccon3)CC2)c(C(F)F)n1` [Compound I, (R)-4-(1-((3-(difluoromethyl)-1-methyl-1H-pyrazol-4-yl)sulfonyl)-1-fluoroethyl)-N-(isoxazol-3-yl) piperidine-1-carboxamide] as the compound, how does the “abnormal ECG results” value (healthy volunteers; fasted state) read?
Its value is 3 (30.0%) n (%).

And the “drug-related headache, subjects” value (healthy volunteers; fasted state)?
The value was 3 subjects.

What about the “headache, subjects” value (healthy volunteers; fasted state) of the same compound?
The value was 4 subjects.

What about the “Cardiac disorders, subjects” value (healthy volunteers; fasted state (1 sinus tachycardia and 1 ventricular tachycardia)) of the same compound?
Its value is 2 subjects.

What about the “abnormal ECG results” value (healthy volunteers; fed state) of the same compound?
The value was 2 (20.0%) n (%).

What about the “drug-related headache, subjects” value (healthy volunteers; fed state) of the same compound?
Its value is 1 subject.

And the “headache, subjects” value (healthy volunteers; fed state)?
The value was 1 subject.

And the “Cardiac disorders, subjects” value (healthy volunteers; fed state (palpitations))?
The value was 1 subject.

What about the “A wave peak, placebo-corrected mean change from Baseline (LS mean difference)” value [1, 3] of the same compound?
The value was -3.2 cm/s.

What about the “E wave peak, placebo-corrected mean change from Baseline (LS mean difference)” value [1, 3] of the same compound?
Its value is -1.1 cm/s.

What about the “E/A ratio, placebo-corrected mean change from Baseline (LS mean difference)” value [1, 3] of the same compound?
The value was 0.09.

And the “E/e′ lateral, placebo-corrected mean change from Baseline (LS mean difference)” value [1, 3]?
The value was 0.6.

What about the “LVEDD, placebo-corrected mean change from Baseline (LS mean difference)” value [1, 3] of the same compound?
The value was 0.2 mm.

And the “LVEDV, placebo-corrected mean change from Baseline (LS mean difference)” value [1, 3]?
The value was -2.5 mL.

And the “LVEF, placebo-corrected mean change from Baseline (LS mean difference)” value [1, 3]?
The value was 4.1%.

And the “LVESD, placebo-corrected mean change from Baseline (LS mean difference)” value [1, 3]?
The value was −1.3 mm.

And the “LVESV, placebo-corrected mean change from Baseline (LS mean difference)” value [1, 3]?
The value was -4.0 mL.

And the “LVFS, placebo-corrected mean change from Baseline (LS mean difference)” value [1, 3]?
The value was 3.1%.

And the “LVGLS, placebo-corrected mean change from Baseline (LS mean difference)” value [1, 3]?
The value was −1.1%.

What about the “LVSV, placebo-corrected mean change from Baseline (LS mean difference)” value [1, 3] of the same compound?
The value was 1.0 mL.

What about the “SET, placebo-corrected mean change from Baseline (LS mean difference)” value [1, 3] of the same compound?
The value was 8 ms.

What about the e′ lateral, placebo-corrected mean change from Baseline (LS mean difference) [1, 3] of the same compound?
Its e′ lateral, placebo-corrected mean change from Baseline (LS mean difference) is -1 cm/s.

And the “A wave peak, placebo-corrected mean change from Baseline (LS mean difference)” value [1, 4]?
The value was -8.8 cm/s.

And the “E wave peak, placebo-corrected mean change from Baseline (LS mean difference)” value [1, 4]?
The value was -1.6 cm/s.

What about the “E/A ratio, placebo-corrected mean change from Baseline (LS mean difference)” value [1, 4] of the same compound?
The value was 0.08.

And the “E/e′ lateral, placebo-corrected mean change from Baseline (LS mean difference)” value [1, 4]?
The value was 0.2.

What about the “LVEDD, placebo-corrected mean change from Baseline (LS mean difference)” value [1, 4] of the same compound?
Its value is −0.3 mm.

What about the “LVEDV, placebo-corrected mean change from Baseline (LS mean difference)” value [1, 4] of the same compound?
The value was -1.9 mL.

And the “LVEF, placebo-corrected mean change from Baseline (LS mean difference)” value [1, 4]?
The value was 4.4%.

What about the “LVESD, placebo-corrected mean change from Baseline (LS mean difference)” value [1, 4] of the same compound?
The value was −1.8 mm.

What about the “LVESV, placebo-corrected mean change from Baseline (LS mean difference)” value [1, 4] of the same compound?
The value was -3.5 mL.

What about the “LVFS, placebo-corrected mean change from Baseline (LS mean difference)” value [1, 4] of the same compound?
The value was 2.8%.

And the “LVGLS, placebo-corrected mean change from Baseline (LS mean difference)” value [1, 4]?
Its value is −2.1%.

And the “LVSV, placebo-corrected mean change from Baseline (LS mean difference)” value [1, 4]?
The value was 9.0 mL.

What about the “SET, placebo-corrected mean change from Baseline (LS mean difference)” value [1, 4] of the same compound?
Its value is 36 ms.

And the e′ lateral, placebo-corrected mean change from Baseline (LS mean difference) [1, 4]?
The e′ lateral, placebo-corrected mean change from Baseline (LS mean difference) was -1 cm/s.

What about the “E/e′ (lateral), mean change from baseline (placebo-corrected)” value [2] of the same compound?
The value was 0.8.
